Assay results published in patent US8536132B2, “Lymphatic zip codes in tumors and pre-malignant lesions” (Sanford-Burnham Medical Research Institute, priority 2006, dated 2013).
“Also recorded” adds a separate entry of the source.

Tests used:
[1] = tested on: MMTV-PyMT premalignant lesions; assay: In vivo phage homing to MMTV-PyMT premalignant lesions; set-up: species or system mouse
Method: (§1) The following cell lines were maintained in DMEM supplemented with 10% FCS: C8161 human melanoma, MDA-MB-435 human breast cancer, KRIB human osteosarcoma, and human prostate cancer cells PPC1, DU145. LNCaP human prostate cancer cell line was grown in RPMI 1640 medium with 10 mM HEPES, 1 mM sodium pyruvate and 1.5 g/L sodium bicarbonate supplemented with 10% FCS. M12 human prostate cancer cell line was cultured in RPMI 1640 with 5 μg/ml insulin-transferrin-sodium selenite (ITS), 2.5 μg/ml fungizone, 50 μg/ml gentamycin, 0.2 μM dexamethasone, 10 ng/ml epidermal growth factor (EGF), and 5% FCS (Bae et al., 1998). To produce tumors, nude BALB/c and C56BL/6 mice were subcutaneously (C8161, KRIB, and PPC1) or orthotopically ([…], PPC1, DU145, M12, and LNCaP) injected with 1×10^6 tumor cells. Transgenic mouse tumor models included TRAMP prostate cancer, MMTV-PyMT breast cancer, and K14-HPV16 cervical cancer. To initiate cervical carcinogenesis, female K14-HPV16 mice (Arbeit et al., 1994) were treated with 17β-estradiol (E2; (Arbeit et al., 1996; Giraudo et al., 2004). Briefly, one-month-old virgin female transgenic (heterozygous K14-HPV16, 1203#1) and nontransgenic (FVB/n) mice were anesthetized with isoflurane, and continuous release pellets that deliver E2 at doses of 0.05 mg over 60 days (Innovative Research of America, Sarasota, Fla., USA) were implanted subcutaneously in the dorsal back skin. Subsequent pellets were implanted at 3 and 5 months of age for a total of 6 months of hormone treatment. K14-HPV16 mice were maintained in the FVB/n background (FVB/n; The Jackson Laboratory). The mice were maintained in accordance with the University of California, San Francisco (UCSF) institutional guidelines governing the care of laboratory mice. The animal experimentation was approved by Animal Research Committees at UCSF or The Burnham Institute.
(§2) In vivo homing specificity of phage was tested as described (Hoffman, 2004). Briefly, mice bearing tumors were anesthetized and intravenously injected with 5×10^9 pfu of phage. […]

[2] = tested on: cell suspension derived from pre-malignant prostate lesions; assay: Phage binding to cell suspension derived from pre-malignant prostate lesions; format: cell-based, mouse; conditions: phage clones
Method: (§3) An NNK-encoded CX7C library display on T7Select415-1 phage (Novagen) was prepared as previously described (Laakkonen et al., 2002). Phage selection and validation have been described (Hoffman, 2004). A two-step procedure was designed for the selection of peptides targeting the tumor lymphatic vessels of pre-malignant prostate lesions and prostate tumor. First, the phage library was incubated with cells derived from normal prostate to subtract the phage that bind to normal prostate. Second, the anti-podoplanin magnetic beads were used to isolate lymphatic endothelial cells. 2-3 rounds of ex vivo selection and 2-3 rounds of in vivo selections were performed. For the ex vivo selections, cell suspensions were prepared from normal prostates of tumor-free littermates of TRAMP mice, pre-malignant prostates of 14- to 16-week-old TRAMP mice, and tumor tissues of 25- to 28-week-old TRAMP mice. Collagenase IA (1 mg/ml, Sigma) was used to disperse the tissues. About 1×10^7 normal prostate cells were incubated at 4° C. for 3 hrs with […] plaque forming units (pfu) of T7 phage displaying a CX7C peptide library. The samples were centrifuged at 1200 rpm for 10 min, the supernatant (the normal prostate-subtracted phage library) was recovered and then incubated overnight at 4° C. with 5×10^7 cells derived from pre-malignant prostate tissue or prostate tumor. The cells were washed to remove unbound phage, incubated with rat anti-mouse podoplanin for 45 min at 4° C., and washed three times with cold PBS containing 0.5% BSA. Podoplanin-positive cells were then isolated using M450 sheep anti-rat IgG Dynabeads (M450; Dynal, Oslo, Norway). Phage that bound to the podoplanin-positive cell population were rescued and amplified in E. coli. In vivo phage library screening was performed as described (Laakkonen et al., 2002).

[3] = tested on: K14-HPV16/E2 and MMTV-PyMT lesions and tumors; assay: Fluorescent AGR peptide homing to lesions and tumors of K14-HPV16/E2 and MMTV-PyMT mice; format: in vivo, mouse
Method: (§4) The frozen sections were prepared for immunohistological analysis.

C8161 xenografts = assay: In vivo phage homing to C8161 xenograft tumors; set-up: species or system mouse
Method: as §1
(§5) In vivo homing specificity of phage was tested as described (Hoffman, 2004). Briefly, mice bearing tumors were anesthetized and intravenously injected with 5×10^9 pfu of phage. After 7 min, the mice were perfused through the heart with PBS containing 0.5% BSA. The tumor and control organs were dissected from each mouse and the phage were rescued and tittered. For histology analysis, the mice were perfused with 4% PFA 30 min after the injection of phage. Tissues were embedded in Tissue-Tek O.C.T. and 5 μm sections were prepared for phage immunostaining.

K14-HPV16 skin cancer = assay: In vivo homing to K14-HPV16 skin cancer; set-up: species or system mouse
Method: as §1, §5

[4] = tested on: MDA-MB-435 orthotopic xenografts; assay: In vivo phage homing to MDA-MB-435 orthotopic xenografts; set-up: species or system mouse
Method: as §1, §5

[5] = tested on: PPC1 orthotopic xenografts; assay: In vivo phage homing to PPC1 orthotopic xenografts; set-up: species or system mouse; conditions: for phage homing to PPC1 orthotopic xenografts (in words): i.v. injected phage
Method: as §1, §5

[6] = tested on: M12 orthotopic xenografts; assay: In vivo phage homing to M12 orthotopic xenografts; set-up: species or system mouse; conditions: for phage homing to M12 xenografts (in words): i.v. injected phage
Method: as §1, §5

[7] = tested on: DU145 orthotopic xenografts; assay: In vivo phage homing to DU145 orthotopic xenografts; set-up: species or system mouse; conditions: for phage homing to DU145 xenografts (in words): i.v. injected phage
Method: as §1, §5

PPC1 s.c. xenografts = assay: In vivo phage homing to PPC1 s.c. xenografts; set-up: species or system mouse
Method: as §1, §2

[8] = tested on: tumor derived cell suspensions (TRAMP); assay: Phage binding to TRAMP tumor derived cell suspensions; format: cell-based, mouse; conditions: phage clones
Method: as §3

[9] = tested on: K14-HPV16/E2 cervical lesions; assay: Distribution of fluorescent peptides in K14-HPV16/E2 mice with cervical lesions; format: in vivo, mouse; conditions: labeled peptide i.v.
Method: as §4

[10] = tested on: PPC1 tumor-derived cell suspensions; assay: REA phage binding to PPC1 tumor-derived cell suspensions; format: cell-based; conditions: listed as REA-phage
cultured PPC1 cells = assay: REA phage binding to cultured PPC1 cells; format: cell-based, human; conditions: listed as REA-phage
[11] = phage homing in vivo, MMTV-PyMT premalignant lesions
[12] = phage homing in vivo, C8161 (s.c.) xenografts
[13] = phage homing in vivo, K14-HPV16 skin cancer
[14] = phage homing in vivo, MDA-MB-435 orthotopic xenografts
[15] = phage homing in vivo, PPC1 orthotopic xenografts
[16] = phage homing in vivo, M12 orthotopic xenografts
[17] = phage homing in vivo, DU145 orthotopic xenografts
[18] = phage homing in vivo, PPC1 s.c. xenografts

In the case of “CAGRRSAYC [homing peptide for pre-malignant TRAMP prostate lesions]”, the “phage homing to MMTV-PyMT premalignant lesions (in words)” value ([1]; i.v. injected phage) is reported as “little homing of the phage”, the “Fold over control phage” value [1, 11] is reported as 2 fold and the “Specific Homing” value [1, 11] is reported as “No”. The “binding to cell suspension from pre-malignant prostate lesions (in words)” value [2] was “bound”, the “peptide binding to MMTV-PyMT dysplastic breast lesion” value [3] was “weakly positive” and the “peptide homing to lesions or malignant tumors in K14-HPV16/E2 and MMTV-PyMT models” value [3] was “no detectable homing of the peptide”.

For “CREAGRKAC [homing peptide for prostate tumor lymphatics]”, the “phage homing to C8161 tumors (in words)” value (C8161 xenografts; i.v. injected phage, C8161 xenograft mice) was “negative for REA binding”, the “Fold over control phage” value (C8161 xenografts; [12]) was 5 fold and the “Specific Homing” value (C8161 xenografts; [12]) was “No”. The “homing to K14-HPV16 skin cancers (in words)” value (K14-HPV16 skin cancer; i.v. injection, K14-HPV16 mice) was “negative for REA binding”, the “Fold over control phage” value (K14-HPV16 skin cancer; [13]) was 4 fold and the “Specific Homing” value (K14-HPV16 skin cancer; [13]) was “No”. For the same sequence, the “phage homing to MDA-MB-435 tumors (in words)” value ([4]; i.v. injected phage) was “negative for REA binding”, the “Fold over control phage” value [4, 14] was 4 fold and the “Specific Homing” value [4, 14] was “No”. For the same sequence, the “phage homing to PPC1 orthotopic xenografts (in words)” value ([5]; listed as REA phage) was “homed”, the “phage homing to PPC1 orthotopic xenografts (in words)” value ([5]; listed as REA-phage) was “Significant phage homing” and the “Fold over control phage” value [5, 15] was 25 fold. The “Specific Homing” value [5, 15] was “Yes”, the “phage homing to M12 xenografts (in words)” value ([6]; listed as REA phage) was “homed” and the “phage homing to M12 xenografts (in words)” value ([6]; listed as REA-phage) was “Significant phage homing”. The “Fold over control phage” value [6, 16] was 24 fold, the “Specific Homing” value [6, 16] was “Yes” and the “phage homing to DU145 xenografts (in words)” value ([7]; listed as REA phage) was “homed”. For the same sequence, the “phage homing to DU145 xenografts (in words)” value ([7]; listed as REA-phage) was “Significant phage homing”, the “Fold over control phage” value [7, 17] was 14 fold and the “Specific Homing” value [7, 17] was “Yes”. The “phage homing to subcutaneous PPC1 xenografts versus orthotopic (in words)” value (PPC1 s.c. xenografts; i.v. injected phage, 7 min circulation) was “homed less efficiently”, the “Fold over control phage” value (PPC1 s.c. xenografts; [18]) was 6 fold and the “Specific Homing” value (PPC1 s.c. xenografts; [18]) was “No”. The “binding to TRAMP tumor derived cell suspensions (in words)” value [8] was “robust binding”, the “fluorescent peptide in K14-HPV16/E2 cervical lesions/tumors (in words)” value [9] was “slightly positive” and the “phage binding to PPC1 tumor-derived cell suspensions (in words)” value [10] was “binds to cell suspensions derived from PPC1 tumors; also recorded: strongly bound”. For the same sequence, the “phage binding to cultured PPC1 cells (in words)” value (cultured PPC1 cells) was “not to cultured PPC1 cells; also recorded: did not bind”.
